Experimental findings from patent US20210230131A1, “POLYAMINO BIARYL COMPOUNDS AND THEIR USE” (INSERM (INSTITUT NATIONAL DE LA SANTÉ ET DE LA RECHERCHE …, priority 2018, published 2021) are described below.

For data set [1], the system named is Aβ1-42 peptide secretion. The experiment in a line: Quantification of secreted Aβ1-42 by ELISA in SY5Y-APP695WT cells. Type of data set: cell-based. The note with it: Homo sapiens; concentration inhibiting 50% of Aβ1-42 peptide secretion in SY5Y cells; 24 h treatment; mean ± SD of at least two experiments in triplicate. As to the method: Cell culture and treatment. The human neuroblastoma cell line […] was maintained in Dulbecco's modified Eagle medium (DMEM, high glucose, pyruvate-GIBCO by Life Technologies) supplemented with 10% foetal bovine serum, 2 mM L-glutamine, 1 mM non-essential amino acids and penicillin/streptomycin (GIBCO by Life Technologies) at 37° C. in a 5% CO2 humidified incubator. […] cells were maintained in 75 cm^2 culture flasks (Falcon) with supplemented DMEM medium until they reached 80% of confluence 24 h before treatment. For compounds treatment, a 10 mM stock solution was diluted in freshly supplemented DMEM medium to obtain the precise final concentration of drug. Bafilomycin A1 (BafA1), the vacuolar […] type H+ ATPase inhibitor, was purchased from Merck Millipore and was used at a final dilution of 100 nM. For drug treatment, cells were plated at a rate of 5·10^5 cells per well into 12-well plates (Falcon) and cultured with 1 mL supplemented DMEM cell medium for 24 h before drug exposure. The following day, cell medium was replaced with fresh medium containing drugs diluted at the indicated concentrations. Cells were treated for 24 h. At the end of treatments, the cell medium was collected and kept at -80° C. until use for dosage. Then, cells were rinsed once with PBS and extracted in 100 μL of Laemmli buffer (10 mM Tris, 20% glycerol and 2% Sodium dodecyl sulfate) using a cell-scraper. The cell lysate was further sonicated (30 pulses of 0.5 s, 60 Hz) for 5 min. Total protein concentration was determined using the Pierce BCA Protein Assay Kit (Thermo scientific) according to the manufacturer's instructions. Samples were stored at -80° C. until analysis. Quantification of secreted Aβ1-40/1-42 and sAPPα/sAPPβ. Conditioned media of […] collected at the end of treatments were centrifuged at 1000 g for 5 min to eliminate cells debris. Aβ1-40 and Aβ1-42 peptide concentrations in […] were determined using amyloid-beta 40 and 42 Human ELISA kits (Invitrogen) according to the manufacturer's instructions after 1:10 and 1:2 dilutions of supernatants in ELISA buffer, respectively. sAPPα and sAPPβ concentrations in ng/mL were determined using the sAPPα/sAPPβ kit (Meso Scale Diagnostics, MSD®) according to the manufacturer's instructions. Compounds of the invention (compounds 24-37, 41, 44 and 51-58) were evaluated for their ability to modulate APP processing on SY5Y human neuroblastoma cell line stably expressing the neuronal isoform of human wild-type APP695 (SYSY-APPwt). Aβ levels (Aβ1-40 and Aβ1-42) after treatment with reference and tested compounds were measured by ELISA (Table 2). […] APP carboxy-terminal fragments (αCTFs and AICD) were measured by Western blot and quantified. The effect of reference and tested compounds on αCTFs and AICD are expressed as the intensity of corresponding western-blot bands resulting from the secretase cleavages.

In data set [2] the test system is Tau. Briefly: Tau phosphorylation by Western-blotting in hippocampus and cortex of ThyTau22 mice. Type of data set: in vivo. The following applies: one month treatment; for phosphorylation of Tau (overall): hippocampus and cortex. As to the method: (§1) Thy-Tau22 transgenic colonies (C57Bl/6J genetic background) were obtained by crossing heterozygous males C57Bl/6J with WT females. All animals were housed in a pathogen-free facility at 5 to 6 animals per cage (Techniplast Cages 1284L), with ad libitum access to food and water in a 12/12-hour light-dark cycle and maintained under a constant temperature of 22° C. For treatment, animals were randomly distributed and compound 30 or 31 was provided in the drinking water at a final concentration of 1 mg/kg, ie […] for drinking solutions taking into account an average weight of 25 g/mouse drinking 4 mL/day. […] Food consumption and bodyweight were also assessed. In WT animals, a pilot study of drug treatment was performed for one month to establish the innocuousness of compound 30 and 31 treatments. Thy-Tau22 females were treated for 1 months, starting at 6 months of age.
Hyperphosphorylation and phosphorylation levels of Tau. Tau expression, phosphorylation and hyperphosphorylation in the hippocampus and in the cortex were investigated by Western-blotting (FIGS. 5 and 6). The mice were euthanized by beheading and their brain was dissected and was put for few seconds in an isopropanol solution for post-mortem conservation. The samples were sonicated with a Tris-Sucrose Buffer during 30s and were prepared for Western-blot analysis by adding 1 volume of NuPage NuPAGER©LDS 2× sample buffer supplemented with 20% NuPAGER© sample reducing agents (Invitrogen). Samples were heated 10 min at 70° C. 8 μg of proteins per well were loaded onto precast 12% Criterion XT Bis-Tris polyacrylamide 26 wells gels (Bio-Rad) and electrophoresis was achieved by applying a tension of 200V during 60 min using a Criterion electrophoresis Cell with the NuPAGER©MOPS SDS running buffer (1×). Proteins were transferred to a nitrocellulose membrane of […] pore size (G&E Healthcare) using the Criterion blotting system by applying a tension of 100 V for 40 min. Molecular weights calibration was achieved using molecular weight markers (Novex and Magic Marks, Life Technologies). Protein transfer and quality were determined by a reversible Ponceau Red coloration (0.2% Xylidine Ponceau Red and 3% Trichloroacetic acid). Membranes were then blocked in 25 mM Tris-HCl pH 8.0, 150 mM NaCl, 0.1% Tween-20 (v/v) (TBS-T) and 5% (w/v) of skimmed milk (TBS-M) or 5% (w/v) of bovine serum albumin (TBS-BSA) depending on the antibody during 1 hour. […] Quantifications of protein expression levels were performed with ImageQuantTL Software. The results obtained with the quantification of the treated samples were divided by the results obtained with the quantification of the housekeeping gene (GAPDH) in order to check if the amount of proteins was homogeneous in each well. […]

Data set [3] is described as follows: Stability of aqueous drinking solutions. Type of data set: physicochemical. As to the method:
as §1

Molecules are shown by their SMILES.

Turning to `CN(C)Cc1ccccc1-c1ccc(NCCCN2CCCCC2)c(OCCC2CCCCC2)c1` [Compound 31, 3-(2-cyclohexylethoxy)-2′-((dimethylamino)methyl)-N-(3-(piperidin-1-yl)propyl)-[1,1′-biphenyl]-4-amine], half-maximal inhibition in data set [1] (IC50) required 2.8 ± 0.1 µM. For the same molecule, in data set [2] (Western-blot), the “Tau phosphorylation sites in the cortex” value is “decreased significantly the p422, AT100, p396 and p262 phosphorylation sites”; the “Tau phosphorylation sites in the hippocampus” value was “p422 and p262 phosphorylation sites were also significantly reduced”. In addition, the “phosphorylation of Tau (overall)” value in data set [2] is “decreased the phosphorylation of Tau in the hippocampus and in the cortex”. Besides, the “stability of aqueous solutions” value in data set [3] was “stable during more than one week”.

Take `CN(C)Cc1ccccc1-c1ccc(NCCCN2CCCCC2)c(OCCN2CCCCC2)c1` [Compound 30, 4-(2-[(Dimethylamino)methyl]phenyl)-2-[2-(piperidin-1-yl)ethoxy]-N-[3-(piperidin-1-yl)propyl]aniline]: in data set [1], the IC50 (commonly the midpoint of a concentration-inhibition curve) was 3.4 ± 1.9 µM. For the same molecule, the “phosphorylation of Tau (overall)” value in data set [2] was “showed less effect on Tau phosphorylation”. In data set [3], the “stability of aqueous solutions” value was “stable during more than one week”.
